Laboratory results from patent publication US8093262B2 (priority 2005, dated 2012).
Like-named read-outs stand apart in the source and are kept apart here.

How the values were obtained:
patients = conditions: human, in vivo; cited from earlier work
rats [1] = test: Toxicity (TOX) / minimal motor impairment, rats; format: in vivo; conditions: for Behavioral motor impairment, animals affected: rat, in vivo, po
Description: (§1) Peak anticonvulsant activity was observed one-hour after p.o. administration of 1 mg/kg.

mice [2] = test: Toxicity model (TOX), rotorod, mice; format: in vivo; conditions: for TOX observation code: i.p.; for TOX N/F (mice showing an effect / mice tested): mouse, in vivo, ip
mice [3] = test: Subcutaneous Metrazol (SCMET / scPTZ) seizure test, mice, i.p.; format: in vivo
Description: (§2) Seizure testing was carried out as follows.

mice [4] = format: in vivo; conditions: for N/F, Time to Peak Effect: IP, 32 mA, 0.83 mg/kg; for COMMENT (observed effects): ip
Description: as §2

mice [5] = test: Maximal Electroshock (MES) seizure test, mice, i.p.; format: in vivo; conditions: 1 mg/kg
Description: This toxicity profile is generally not observed in humans. Thus, a higher relative dose of a huperzine compound is tolerated in humans compared to rodents.
as §2

rats [6] = test: Subcutaneous Metrazol (SCMET / scPTZ) seizure test, rats, oral; format: in vivo
Description: as §1

Swiss Webster NIH mice = test: Formalin test for antinociceptive activity (paw licking/biting); format: in vivo; conditions: 1 mg/kg i.p.
Description: The formalin test for antinociceptive activity is described in numerous publications, e.g., Hunskaar, S., O. B. Fasmer, and K. Hole, J. Neurosci. […] The formalin test is accepted as an art recognized model of persistent clinical pain.
Male Swiss Webster NIH mice (20-30 g; Harlan, San Diego, Calif.) were used in the experiments described herein. Food was withdrawn on the day of experiment. Mice were placed in Plexiglass jars for at least 1 hour to accommodate to the environment. Following the accommodation period, mice were weighed and given either a huperzine compound administered intraperitoneal (i.p.) or oral (p.o.), or the appropriate volume of vehicle (10% Tween-80). Fifteen minutes after the i.p. dosing, and 30 minutes after the p.o. dosing mice were injected with formalin (20 μL of 5% formaldehyde solution in saline) into the dorsal surface of the right hind paw. Mice were transferred to the Plexiglass jars and monitored for the amount of time spent licking or biting the injected paw. Periods of licking and biting were recorded in 5 minute intervals for 40 minutes after the formalin injection. […] The early phase (acute) of the formalin response is measured as licking/biting between 0-5 minutes, and the late phase (inflammatory) is measured from 10-40 minutes. Differences between vehicle and drug treated groups are analyzed by one-way analysis of variance (ANOVA). […]

[7] = format: physicochemical
mice [8] = conditions: established antiepileptic drugs; cited from earlier work

SMILES: C/C=C1\[C@H]2C=C(C)C[C@]1(N)c1ccc(=O)[nH]c1C2 [Huperzine A]
- Adverse effects in patients (patients): adverse effects were noted infrequently
- Toxicity (rats [1]; oral, 1 mg/kg, any of the animals): no toxicity
- Behavioral motor impairment, animals affected (rats [1]; 2 mg/kg): 75%
- Behavioral motor impairment, animals affected (rats [1]; 4 mg/kg): 100%
- TOX observation code (mice [2]; 1 mg/kg SOL, 0.5 h): 4/4 (T)^2
- TOX observation code (mice [2]; 1 mg/kg SOL, 4.0 h): 2/2 (T)
- TOX observation code (mice [2]; 3 mg/kg SUS, 4.0 h): 4/4 (T)
- TOX observation code (mice [2]; 10 mg/kg SUS, 4.0 h): 2/2 (T)
- TOX observation code (mice [2]; 30 mg/kg SUS, 0.5 h): 4/4 (D)^3
- TOX observation code (mice [2]; 100 mg/kg SUS, 0.5 h): 8/8 (D)
- TOX observation code (mice [2]; 300 mg/kg SUS, 0.5 h): 4/4 (D)
- TD50 (mice [2]; mice): 0.83 mg/kg
- TOX N/F (mice showing an effect / mice tested) (mice [2]; 0.1 mg/kg, 4 h): 0/4
- TOX N/F (mice showing an effect / mice tested) (mice [2]; 0.3 mg/kg, 4 h): 0/4
- TOX N/F (mice showing an effect / mice tested) (mice [2]; 1 mg/kg, 0.5 h): 4/4 (T)^2
- TOX N/F (mice showing an effect / mice tested) (mice [2]; 1 mg/kg, 4 h): 2/2 (T)
- TOX N/F (mice showing an effect / mice tested) (mice [2]; 3 mg/kg, 0.5 h): 8/8
- TOX N/F (mice showing an effect / mice tested) (mice [2]; 3 mg/kg, 4 h): 4/4 (T)
- TOX N/F (mice showing an effect / mice tested) (mice [2]; 10 mg/kg, 0.5 h): 4/4
- TOX N/F (mice showing an effect / mice tested) (mice [2]; 10 mg/kg, 4 h): 2/2 (T)
- TOX N/F (mice showing an effect / mice tested) (mice [2]; 30 mg/kg, 0.5 h): 4/4 (D)^3
- TOX N/F (mice showing an effect / mice tested) (mice [2]; 100 mg/kg, 0.5 h): 8/8 (D)
- TOX N/F (mice showing an effect / mice tested) (mice [2]; 300 mg/kg, 0.5 h): 4/4 (D)
- SCMET N/F (mice showing an effect / mice tested) (mice [3]; 1 mg/kg SOL, 0.5 h): 3/5
- SCMET N/F (mice showing an effect / mice tested) (mice [3]; 3 mg/kg SUS, 0.5 h): 1/1
- SCMET N/F (mice showing an effect / mice tested) (mice [3]; 10 mg/kg SUS, 4.0 h): 1/1
- Protection in the mouse 6 Hz test (FIG. 1) (mice [4]; 0.8 mg/kg): time-dependent protection
- N/F, Time to Peak Effect (mice [4]; 0.25 h): 1/4
- N/F, Time to Peak Effect (mice [4]; 0.5 h): 1/4
- N/F, Time to Peak Effect (mice [4]; 1.0 h): 4/4
- N/F, Time to Peak Effect (mice [4]; 2.0 h): 2/4
- N/F, Time to Peak Effect (mice [4]; 4.0 h): 0/4
- Protection against 6 Hz seizures (FIG. 2) (mice [4]; mouse, in vivo): dose-dependent protection
- COMMENT (observed effects) (mice [4]; mouse, in vivo, 0.18 mg/kg): Minimal motor impairment
- COMMENT (observed effects) (mice [4]; mouse, in vivo, 0.2 mg/kg): Tremors
- COMMENT (observed effects) (mice [4]; mouse, in vivo, 0.35 mg/kg): Minimal motor impairment
- Protection in the mouse MES test (FIG. 1) (mice [5]): time-dependent protection
- Time of peak anticonvulsant activity (rats [6]; after p.o. administration of 1 mg/kg): one-hour
- Time of peak activity post administration (rats [6]; oral, 1 mg/kg, rat MES and SCMET time course): between 30 minutes and two hours
- Inhibition of phase 1 (acute) pain response (Swiss Webster NIH mice): complete inhibition
- Inhibition of phase 2 (inflammatory) pain response (Swiss Webster NIH mice): complete inhibition
- Solubility in the methyl cellulose solvent [7]: not soluble

SMILES: NC(=O)N1c2ccccc2C=Cc2ccccc21 [carbamazepine]
- Efficacy in the 6 Hz psychomotor seizure model (mice [8]): limited efficacy

SMILES: Nc1nnc(-c2cccc(Cl)c2Cl)c(N)n1 [lamotrigine]
- Efficacy in the 6 Hz psychomotor seizure model (mice [8]): limited efficacy

SMILES: O=C1NC(=O)C(c2ccccc2)(c2ccccc2)N1 [phenyloin]
- Efficacy in the 6 Hz psychomotor seizure model (mice [8]): limited efficacy

SMILES: CC1(C)O[C@@H]2[C@@H](CO[C@@]3(COS(N)(=O)=O)OC(C)(C)O[C@@H]23)O1 [topiramate]
- Efficacy in the 6 Hz psychomotor seizure model (mice [8]): limited efficacy
